Test results reported in US9242945B2, “Substituted 2-benzylidene-2H-benzo[b][1,4]thiazin-3(4H)-ones, derivatives thereof, and therapeutic uses thereof” (TEMPLE UNIVERSITY—OF THE COMMONWEALTH SYSTEM OF HIGHER …, priority 2011, dated 2016).

Columns and labels:
PIM1 = target: T1, PIM1 (Homo sapiens, UniProt P11309); assay: PIM1 inhibition (32P-ATP kinase assay); format: biochemical; settings: K9 Peptide substrate, 20 μM cold ATP
T1 construct: PIM1 (human full length protein; Invitrogen PV3503); purchased Invitrogen PV3503
T1 sequence (P11309 whole entry): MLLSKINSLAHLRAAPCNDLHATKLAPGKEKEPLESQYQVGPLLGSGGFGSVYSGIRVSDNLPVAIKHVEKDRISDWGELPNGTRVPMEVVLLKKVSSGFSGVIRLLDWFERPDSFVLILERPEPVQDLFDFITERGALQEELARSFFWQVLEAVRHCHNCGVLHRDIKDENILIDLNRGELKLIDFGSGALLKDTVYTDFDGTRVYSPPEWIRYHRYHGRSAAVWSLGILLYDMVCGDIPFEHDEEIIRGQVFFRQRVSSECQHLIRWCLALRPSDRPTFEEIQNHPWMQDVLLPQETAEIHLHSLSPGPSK
Protocol: The ability of Compound 42 to inhibit the activity of the kinase proto-ocogene pim-was determined as follows. Ten nanograms of PIM1 (human full length protein; Invitrogen PV3503) was diluted into kinase buffer (20 mM Tris pH 7.5, 10 mM MgCl2, 0.01% NP-40, 1 mM EGTA, 2 mM DTT) and incubated with varying concentrations of Compound 42 at room temperature for 30 minutes. The kinase reactions were initiated by the addition of 20 μM of PIM1 specific synthetic peptide substrate (K9 Peptide; p70S6 Kinase Substrate; AnaSpec, San Jose, Calif.), 20 μM cold ATP, and 20 μCi γ-^32P-ATP. The reactions were incubated at 30° C. for 20 minutes and terminated by the addition of 0.5M o-Phosphoric acid. 10 μl of the reaction mixture was spotted on a P-30 Filtermat (PerkinElmer) and developed using autoradiography or phosphorimaging.

MiaPaca 2 = assay: Cancer cell cytotoxicity assay, MiaPaca 2; format: cell-based; settings: Homo sapiens, MIA PaCa-2; MiaPaca 2, Pancreatic Cancer
Protocol: (§1) The effect of the compounds of the invention on tumor cells was determined by the assay described by Latham et al., Oncogene 12:827-837 (1996). Tumor cells K562 (chronic myelogenous leukemia; leukemia cell line +ve for Bcr-Abl) or DU145 (prostate cancer) were plated in 12-well dishes at a cell density of 2.5×10^4 cells well. The plated cells were treated 24 hours later with a compound of the invention dissolved in DMSO at multiple concentrations ranging from 0.01 μM to 100 μM. The plates were examined 96 hours later under an inverted microscope, Olympus CK-2 using a 10× objective, and compound activity was noted by physical observation. When necessary, the total number of viable cells was determined by trypsinizing the wells and counting the number of viable cells, as determined by trypan blue exclusion, using a hemacytometer. Where “Lower” and “Upper” value are provided in Table 5, the IC50 was determined to be within that range. […]
(§2) The cytotoxicity of Compound 42, (Z)-6-((2,6-dichlorobenzyl)sulfonyl)-2-(4-hydroxy-3-nitrobenzylidene)-2H-benzo[b][1,4]thiazin-3(4H)-one, was determined according the assay method of Example 7 on the prostate (androgen dependent or independent), breast and pancreatic cancer cell lines listed in Table 6A, below, and the additional cell lines listed in Table 6B, below. […]

CK2α2 = target: T2, CK2α2 (Homo sapiens, UniProt P19784); assay: Casein kinase 2 inhibition, CK2α2 subunit (32P-ATP kinase assay); format: biochemical; settings: 20 μM cold ATP; 30 min preincubation, 20 min at 30° C.
T2 construct: CK2α2 (human full length protein; Invitrogen PV3624); purchased Invitrogen PV3624
T2 sequence (P19784 whole entry): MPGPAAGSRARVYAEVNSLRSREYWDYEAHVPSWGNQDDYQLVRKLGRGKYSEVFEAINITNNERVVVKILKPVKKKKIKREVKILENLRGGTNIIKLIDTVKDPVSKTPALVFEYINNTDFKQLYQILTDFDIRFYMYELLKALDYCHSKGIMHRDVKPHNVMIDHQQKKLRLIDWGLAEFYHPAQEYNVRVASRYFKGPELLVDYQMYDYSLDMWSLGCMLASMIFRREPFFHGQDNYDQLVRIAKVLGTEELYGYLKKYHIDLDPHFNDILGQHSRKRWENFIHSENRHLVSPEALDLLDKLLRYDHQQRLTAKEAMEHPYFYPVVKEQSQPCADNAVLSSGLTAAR
Protocol: The ability of Compound 42 to inhibit the activity of casein kinase 2 (CK2) was determined as follows using the catalytic CK2 subunits CK2α and CK2α2. Two and one half nanograms of CK2α (human full length protein; Invitrogen PV3248), 2.5 ng of a CK2α form containing amino acids 3-339) or 10 ng of CK2α2 (human full length protein; Invitrogen PV3624) was diluted into kinase buffer (20 mM Tris pH 7.5, 10 mM MgCl2, 0.01% NP-40, 1 mM EGTA, 2 mM DTT) and incubated with varying concentrations of Compound 42 at room temperature for 30 minutes. Kinase reactions were initiated by the addition of 1 μg of CK2 substrate α-synuclein or 40 μM CK2 synthetic peptide substrate (AnaSpec, San Jose, Calif.), 20 μM cold ATP, and 20 μCi γ-^32P-ATP. The reactions were incubated at 30° C. for 20 minutes, terminated by the addition of 2× Laemmle sample buffer, boiled for 2 minutes, resolved by 12% acrylamide SDS-PAGE, and subjected to autoradiography.

MCF-7 = assay: Cancer cell cytotoxicity assay, MCF-7; format: cell-based; settings: Homo sapiens, MCF7; MCF-7, Breast Cancer
Protocol: as §1, §2

MDA.MB-231 = assay: Cancer cell cytotoxicity assay, MDA.MB-231; format: cell-based; settings: Homo sapiens; MDA.MB-231, Breast Cancer
Protocol: as §1, §2

PC3 = assay: Cancer cell cytotoxicity assay, PC3; format: cell-based; settings: Homo sapiens, PC-3; PC3, Prostate Cancer
Protocol: as §1, §2

RPWE-1 = assay: Cancer cell cytotoxicity assay, RPWE-1; format: cell-based; settings: RPWE-1, Normal prostate epithelium
Protocol: as §1, §2

IC50 (PIM1): 0.226 µM
IC50 (CK2α2): 0.0831 µM
Compound: O=C1Nc2cc(S(=O)(=O)Cc3c(Cl)cccc3Cl)ccc2S/C1=C\c1ccc(O)c([N+](=O)[O-])c1 [Compound 42, (Z)-6-((2,6-dichlorobenzyl)sulfonyl)-2-(4-hydroxy-3-nitrobenzylidene)-2H-benzo[b][1,4]thiazin-3(4H)-one]
GI50 (MiaPaca 2): 0.09 µM
GI50 (MCF-7): 1 µM
GI50 (MDA.MB-231): 0.12 µM
GI50 (PC3): 0.16 µM
GI50 (RPWE-1): 0.1 µM
